Data reported in US9572760B2, “Uses of compounds and mixtures from Antrodia cinnamomea mycelia” (Simpson Biotech Co., Ltd., priority 2013, dated 2017).

What was measured:
HSC = HSC apoptosis by cell death detection ELISA; type: cell-based; details: 24-80 μM; 24 h, 48 h and 72 h
Protocol: Apoptosis was detected with a sandwich immunoassay system using a cell death detection ELISA kit (Roche Diagnostic Inc.). Roche's Cell Death Detection ELISA kit qualitatively and quantitatively detects the amount of cleaved DNA/histone complexes (nucleosomes) in a given sample using a sandwich-enzyme-immunoassay-based method. The cells (1×10^4 cells/well) were seeded in 100 μl medium in a 96-well plate (Nunc, Denmark) and cultured for 24 h to allow the cells to attach and then treated with three different concentrations (8 μM, 24 μM and 80 μM) of either Compound A, B, C and D for 24 h, 48 h and 72 h and the plates were incubated in 37° C. After incubation, the 96 well plates were centrifuged for 10 min at 200×g and removed supernatant and discard, then added 200 μl of lysis buffer per well using multipipetman and incubated 30 min at room temperature, microplates were centrifuged the lysate at 200×g for 10 min. After the centrifuge, 20 μl of the supernatant was transferred into the streptavidin-coated microplate, then added 80 μl of immunoreagent to each well. The microplate was covered with an adhesive foil and incubated on a shaker under gentle shaking for 2 hour at room temperature. After the incubation period, microplates were washed three times with 250-300 μl incubation buffer and 100 μl ABTS solution was added and incubated for 30 min or until color is sufficient for photometric. ABTS Stop solution was added and absorbance of the samples was measured using ELISA reader at 405 nm, reference wavelength at 490 nm.

collagen I and III = assay: Collagen I and collagen III quantification (ELISA) in rabbit ear scar; type: in vivo, New Zealand white rabbits
Protocol: The rabbit ear model of hypertrophic scarring was established. In brief, 12 New Zealand white rabbits, weighing 2.5 to 3.0 kg, were prepared for wounding under sterile conditions. Four 1 cm full thickness circular wounds were created down to the cartilage on the ventral side of each ear using a 1 cm punch biopsy. The perichondrial membrane was then dissected off the cartilage using a surgical blade. The test agents including compound B, C and ACM ethanol extract were applied to the wounds of the experimental group ([…] to each wound) every day in concentrations of 1% w/v for 14 days, while the control group received equal amounts of 1% w/v saline.
The quantification of collagen I and III used an ELISA Kit (R & D Systems Inc., Minneapolis, Minn., USA) according to the operation manual.

cirrhotic animals = assay: Redox status (Glutathione level, GSH:GSSG ratio) in cirrhotic animals; type: in vivo, Wistar rats; details: compound B 7 mg/kg, compound C 14 mg/kg
Protocol: A commercially available kit (# K264-100, BioVision) was used to measure glutathione (GSH), and oxidized glutathione (GSSG). […] The assay was conducted with several modifications to the manufacturer's directions. Briefly, cellular pellet (˜10 mg) was homogenized immediately, and take 60 μl of each sample to a prechilled tube containing Perchloric Acid and centrifuged at 13,000×g for 2 min, collect supernatant and stored at −80° C. until analyzed. The assay was conducted as described by the manufacturer. Briefly, cold 3N KOH was added to each sample mixed, and centrifuged at 13,000×g for 10 min. Ten microliters of each sample and the appropriate buffer and 90 μl of Assay Buffer to detect GSH and 10 μl of glutathione reductase were mixed to detect total glutathione and 10 μl of GSH Quencher to detect GSSG and incubated at room temperature for 40 min and the absorbance of each sample was read at 340/420 nm for 3 min. The protein concentration for each sample was determined via a DC protein concentration assay (Bio-Rad). Signals from each sample were normalized to the corresponding protein content of that sample.

SMILES: CC(C)=CCOc1ccc(C2=C(CC(C)C)C(=O)NC2=O)cc1 [Compound B, 3-isobutyl-4-[4-(3-methyl-2-butenyloxy)phenyl]-1H-pyrrol-2,5-dione]
- apoptosis of HSC (cell death detection assay) (HSC): apoptosis of HSC
- collagen III density (collagen I and III; day 7, 1% w/v topical): insignificantly decreased
- collagen I density (collagen I and III; day 14, 1% w/v topical): significantly decreased
- collagen III density (collagen I and III; day 14, 1% w/v topical): significantly reduced
- Redox status: GSH:GSSG ratio (cirrhotic animals): significantly improved
- Redox status: Glutathione level (cirrhotic animals): significantly improved

SMILES: CC(C)=CCOc1ccc(C2=C(CC(C)C)C(=O)N(O)C2=O)cc1 [Compound C, 3-isobutyl-4-[4-(3-methyl-2-butenyloxy)phenyl]-1H-pyrrol-1-ol-2,5-dione]
- apoptosis of HSC (cell death detection assay) (HSC): apoptosis of HSC
- collagen III density (collagen I and III; day 7, 1% w/v topical): insignificantly decreased
- collagen I density (collagen I and III; day 14, 1% w/v topical): significantly decreased
- collagen III density (collagen I and III; day 14, 1% w/v topical): significantly reduced
- Redox status: GSH:GSSG ratio (cirrhotic animals): significantly improved
- Redox status: Glutathione level (cirrhotic animals): significantly improved
